Results on 6 compounds are retold here after patent EP4458820A1 (Shanghai Institute of Materia Medica, Chinese Academy of …, priority 2021, dated 2023).

The target in one test is T1, THR-α (Homo sapiens, UniProt P10827).
T1 sequence (P10827 1-410 isoform P10827-2): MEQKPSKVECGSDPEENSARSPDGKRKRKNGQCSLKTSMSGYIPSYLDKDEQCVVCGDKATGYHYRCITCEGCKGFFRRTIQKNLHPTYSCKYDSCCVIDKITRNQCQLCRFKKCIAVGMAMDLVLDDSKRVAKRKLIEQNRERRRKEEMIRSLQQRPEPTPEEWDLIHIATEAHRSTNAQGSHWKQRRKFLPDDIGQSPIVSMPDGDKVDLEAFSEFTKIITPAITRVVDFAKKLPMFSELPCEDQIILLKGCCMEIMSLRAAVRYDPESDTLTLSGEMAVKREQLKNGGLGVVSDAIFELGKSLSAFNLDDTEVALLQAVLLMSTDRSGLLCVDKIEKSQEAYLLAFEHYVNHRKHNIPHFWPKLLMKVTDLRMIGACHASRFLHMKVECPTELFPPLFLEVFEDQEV
Put plainly: in vitro agonist activity at the molecular level (AlphaScreen detection), THR-α. The following applies: in vitro molecular evaluation system; for Emax: read-out: THR-α Rel % Activity of T3. Format: biochemical.

Another test addresses T2, THR-β (Homo sapiens, UniProt P10828).
T2 construct: GST; made in house
T2 sequence (P10828 1-461): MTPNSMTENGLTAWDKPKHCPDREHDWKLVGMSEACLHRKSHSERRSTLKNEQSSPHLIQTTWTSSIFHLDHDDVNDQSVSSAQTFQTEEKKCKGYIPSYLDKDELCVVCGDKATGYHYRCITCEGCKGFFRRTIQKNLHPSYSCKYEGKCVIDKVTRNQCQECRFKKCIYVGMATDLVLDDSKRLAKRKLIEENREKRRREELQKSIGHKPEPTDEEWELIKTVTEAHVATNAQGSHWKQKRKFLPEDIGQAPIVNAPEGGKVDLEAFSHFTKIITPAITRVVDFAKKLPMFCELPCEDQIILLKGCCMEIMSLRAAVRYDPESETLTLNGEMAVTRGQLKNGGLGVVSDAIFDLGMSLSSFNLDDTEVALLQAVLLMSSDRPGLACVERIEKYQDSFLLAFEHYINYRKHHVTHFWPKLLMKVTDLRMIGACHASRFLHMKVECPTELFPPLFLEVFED
In words: in vitro THR β agonist activity at the molecular level (AlphaScreen detection). The format is biochemical. The note with it: in vitro molecular evaluation system; for Selectivity: THR-β versus THR-α; for Emax: read-out: THR-β Rel % Activity of T3. The procedure: At the molecular level, the binding ability of the compound to thyroid hormone receptor β (THR β) was measured by AlphaScreen detection. Firstly, recombinant GST-THR β fusion proteins were constructed, followed by compound-receptor binding reactions in 384-well plates.

SMILES strings stand for the structures. Where only a bound is given, the exact number is not on record here.

By EC50 is commonly meant the concentration at which the effect is half-maximal. A high value points to a need for much substance.

Take `Cc1cc(-c2ccco2)nc2ccc(Oc3c(Cl)cc(-n4nc(C#N)c(=O)[nH]c4=O)cc3Cl)cc12` [Compound 15, 2-(3,5-Dichloro-4-((2-(furan-2-yl)-4-methylquinolin-6-yl)oxy)phenyl) -3,5-dioxo-2,3,4,5-tetrahydro-1,2,4-triazine-6-carbonitrile]: on THR-α, the half-maximal effective concentration (EC50) amounted to 280 nM and the Emax is 62.5%. Moreover, on THR-β, the response was half-maximal at 71.7 nM (EC50), the Selectivity came out at 3.9 and the Emax is 84.3%.

In the case of `Cc1cc(-c2ccoc2)nc2ccc(Oc3c(Cl)cc(-n4nc(C#N)c(=O)[nH]c4=O)cc3Cl)cc12` [Compound 17], at THR-α, the EC50 was determined as 1240 nM and the Emax amounted to 57.6%. In addition, at THR-β, the EC50 worked out at 296 nM, the Selectivity came out at 4.2 and the Emax turned out to be 73.7%.

As to `Nc1nn(-c2cc(Cl)c(Oc3ccc4nccc(Cl)c4c3)c(Cl)c2)c(=O)[nH]c1=O` [Compound 99, 6-amino-2-(3,5-dichloro-4((4-chloroquinolin-6-yl)oxy)phenyl)-1,2,4-triazine-3,5(2H,4H)-dione], on THR-α, the EC50 stood at 248 nM and the Emax turned out to be 67.5%. At THR-β, the EC50 was found to be 31.5 nM, the Selectivity was 7.85 and the Emax worked out at 76.3%.

Take `Cc1cc(C2CCCCC2)nc2ccc(Oc3c(Cl)cc(-n4nc(N)c(=O)[nH]c4=O)cc3Cl)cc12` [Compound 134, 6-amino-2-(3,5-dichloro-4-((2-cyclohexyl-4-methylquinolin-6-yl)oxy)phenyl)-1,2,4-triazine-3,5(2H,4H)-dione]: on THR-α, a half-maximal effect (EC50) was put at 429 nM and the Emax came to 38.4%. At THR-β, the EC50 came out at 120 nM, the Selectivity came to 4.2 and the Emax came to 92.3%.

Take `Cc1cc(-c2cccs2)nc2ccc(Oc3c(Cl)cc(-n4nc(C#N)c(=O)[nH]c4=O)cc3Cl)cc12` [Compound 19, 2-(3,5-Dichloro-4-((2-(thiophen-2-yl) -4-methylquinolin-6-yl)oxy)phenyl) -3,5-dioxo-2,3,4,5-tetrahydro-1,2,4-triazine-6-carbonitrile]: the EC50 at THR-α is above 50000 nM. Further, on THR-β, the midpoint of the response, the EC50, lay at 379 nM and the Emax is 71.8%.

With `Cc1cc(-c2ccc(F)cc2)nc2ccc(Oc3c(Cl)cc(-n4nc(N)c(=O)[nH]c4=O)cc3Cl)cc12` [Compound 60, 6-amino-2-(3,5-dichloro-4-((2-(4-fluorophenyl)-4-methylquinolin-6-yl)oxy)phenyl)-1,2,4-triazine-3,5(2H,4H)-dione], at THR-α, the response was half-maximal at 57.2 nM (EC50) and the Emax worked out at 62.7%. Moreover, on THR-β, the midpoint of the response, the EC50, lay at 8.3 nM; the Selectivity is given as 6.89; the Emax came to 83%.
